# Assay results: article PMC5465826 (Research in Pharmaceutical Sciences, 2017)
# “And” between values parts separate entries of the source, which are not always exact repeats. Equal values may be shown once. Read-outs that look alike come from different tables or passages of the source.
# What was measured:
# [1] = humans, 5 g oral dose of a botanical mixture of 7 herbs; ref [28]; cited from earlier work
# [2] = assay type: in vivo, rat
# [3] = intravenous 20 mg/kg, achiral, approximate; ref [25][26]; cited from earlier work
# [4] = ref [18][19][21][25][26][27], cited from earlier work
# [5] = rat serum, IV 20 mg/kg racemic liquiritigenin, mean ± SEM, n = 4, 20 mg/kg
# [6] = oral, given alone or in a mixture (exact dose unknown), approximate
Structure (SMILES),fraction excreted unchanged in the urine (fe %) [1] [%],"t1/2 serum [2, 5]",AUC [3] [µg·min/mL],clearances [3] [mL/min/kg],plasma half-lives [3] [min],"bioavailability ([4]; Kang, et al., oral doses of 20-50 mg/kg)","AUC [4, 6] [ng·h/mL]","plasma half-lives [4, 6] [h]",time liquiritigenin could be measured in serum ([2]; rat serum),time liquiritigenin could be measured (detected) in urine ([2]; rat urine),"Vss ([2]; rat, IV 20 mg/kg racemic liquiritigenin, mean ± SEM, n = 4, 20 mg/kg) [L/kg]"
O=C1C[C@H](c2ccc(O)cc2)Oc2cc(O)ccc21 [R-liquiritigenin],50.9 ± 21.6,32.59 ± 4.26 min,,,,,,,,,
O=C1C[C@@H](c2ccc(O)cc2)Oc2cc(O)ccc21 [S-liquiritigenin],36.2 ± 19.0,,,,,,,,,,
O=C1C[C@@H](c2ccc(O)cc2)Oc2cc(O)ccc21 [liquiritigenin],,12 to 30 min and 15 to 32.4 min and 15 to 25.8 min,290 to 410,50 to 70,5 to 8,3-7%,19 to 6594,3 to 11,only an hour,up to 70 h,2.7 to 4.6
